Tests used:
Experiment in all cases: area over the GR curve, 72 h; higher = more effect;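 further: Dye Drop or Deep Dye Drop imaging of viable cells in 384-well plates (Hoechst nuclei, LIVE/DEAD dye), nine half-log doses, GR normalized to DMSO controls and time-zero plates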
UACC812 = tested on: UACC812
SUM185PE = tested on: SUM185PE
HCC1806 = tested on: HCC1806
HCC1937 = tested on: HCC1937
MDAMB361 = tested on: MDAMB361
HCC1395 = tested on: HCC1395
MDAMB330 = tested on: MDAMB330
PDX1328 = tested on: PDX1328
EVSAT = tested on: EVSAT
BT549 = tested on: BT549
MDAMB453 = tested on: MDAMB453
ZR751 = tested on: ZR751

Row | Structure (SMILES) | area over the GR curve (UACC812) | area over the GR curve (SUM185PE) | area over the GR curve (HCC1806) | area over the GR curve (HCC1937) | area over the GR curve (MDAMB361) | area over the GR curve (HCC1395) | area over the GR curve (MDAMB330) | area over the GR curve (PDX1328) | area over the GR curve (EVSAT) | area over the GR curve (BT549) | area over the GR curve (MDAMB453) | area over the GR curve (ZR751)
1 | O=C(c1cc(Cc2n[nH]c(=O)c3ccccc23)ccc1F)N1CCN(C(=O)C2CC2)CC1 [Olaparib/AZD2281] (max 10 µM) | -0.0835 GR | -0.0156 GR | 0.0953 GR | 0.0584 GR | 0.0967 GR | 0.253 GR | 0.0605 GR | 0.0373 GR | 0.0599 GR | 0.0657 GR | 0.241 GR | 0.0567 GR
2 | O=C(CCCCCCC(=O)Nc1ccccc1)NO [Vorinostat] (max 10 µM) | 0.393 GR | 0.0835 GR | 0.24 GR | 0.193 GR | 0.457 GR | 0.099 GR | 0.271 GR | 0.36 GR | 0.19 GR | 0.189 GR | 0.263 GR | 0.0343 GR
3 | Cc1nc(Nc2ncc(C(=O)Nc3c(C)cccc3Cl)s2)cc(N2CCN(CCO)CC2)n1 [Dasatinib] (max 10 µM) | 1.15 GR | 0.455 GR | 0.63 GR | 0.442 GR | 0.351 GR | 0.598 GR | 0.183 GR | 0.819 GR | 0.379 GR | 0.237 GR | 0.0776 GR | 0.687 GR
4 | Nc1cc(C(F)(F)F)c(-c2cc(N3CCOCC3)nc(N3CCOCC3)n2)cn1 [Buparlisib/NVP-BKM120] (max 10 µM) | 0.806 GR | 0.299 GR | 0.305 GR | 0.263 GR | 0.611 GR | 0.308 GR | 0.442 GR | 0.395 GR | 0.322 GR | 0.248 GR | 0.331 GR | 0.256 GR
5 | CC(C)Nc1cc(-c2c[nH]c(C(=O)N[C@H](CO)c3cccc(Cl)c3)c2)c(Cl)cn1 [BVD523] (max 10 µM) | 0.305 GR | -0.0633 GR | 0.0314 GR | 0.119 GR | 0.193 GR | 0.259 GR | 0.133 GR | 0.102 GR | 0.0496 GR | 0.109 GR | 0.0704 GR | 0.122 GR
6 | CC[C@@H]1C(=O)N(C)c2cnc(Nc3ccc(C(=O)N[C@H]4CC[C@H](N5CCN(CC6CC6)CC5)CC4)cc3OC)nc2N1C(C)C [Volasertib/BI6727] (max 1 µM) | 0.734 GR | 0.286 GR | 0.726 GR | 0.497 GR | 0.793 GR | 0.759 GR | 0.778 GR | 0.842 GR | 0.666 GR | 0.568 GR | 0.488 GR | 0.263 GR
7 | CNCc1ccc(-c2[nH]c3cc(F)cc4c3c2CCNC4=O)cc1 [Rucaparib] (max 10 µM) | 0.0535 GR | 0.108 GR | 0.117 GR | 0.0989 GR | 0.336 GR | 0.385 GR | 0.107 GR | 0.151 GR | 0.0455 GR | 0.0437 GR | 0.14 GR | 0.0837 GR
8 | CC(C)NC[C@@H](C(=O)N1CCN(c2ncnc3c2[C@H](C)C[C@H]3O)CC1)c1ccc(Cl)cc1 [Ipatasertib/GDC0068] (max 10 µM) | 0.173 GR | 0.155 GR | 0.0145 GR | 0.156 GR | 0.453 GR | 0.278 GR | 0.421 GR | -0.0202 GR | 0.463 GR | 0.173 GR | 0.27 GR | 0.0518 GR
9 | Nc1ccc(-c2ccc3ncc4ccc(=O)n(-c5cccc(C(F)(F)F)c5)c4c3c2)cn1 [Torin2] (max 1 µM) | 0.9 GR | 0.473 GR | 0.388 GR | 0.291 GR | 0.869 GR | 0.441 GR | 0.879 GR | 0.643 GR | 0.511 GR | 0.49 GR | 0.679 GR | 0.438 GR
10 | NC1(C(=O)N[C@@H](CCO)c2ccc(Cl)cc2)CCN(c2nc[nH]c3nccc2-3)CC1 [AZD5363] (max 10 µM) | 0.2 GR | 0.267 GR | 0.0705 GR | 0.353 GR | 0.367 GR | 0.5 GR | 0.52 GR | 0.0959 GR | 0.728 GR | 0.211 GR | 0.234 GR | 0.0911 GR
11 | CN(C)C/C=C/C(=O)Nc1ccc(C(=O)Nc2cccc(Nc3cc(-c4c[nH]c5ccccc45)ncn3)c2)cc1 [THZ-P1-2] (max 10 µM) | 0.0711 GR | 0.14 GR | 0.199 GR | 0.288 GR | 0.789 GR | 0.442 GR | 0.592 GR | 0.0529 GR | 0.127 GR | 0.124 GR | 0.533 GR | 0.0386 GR
12 | O=C1NC(=O)[C@@H](c2cn3c4c(cccc24)CCC3)[C@@H]1c1c[nH]c2ccccc12 [Tivantinib/ARQ197] (max 10 µM) | 0.667 GR | 0.239 GR | 0.446 GR | 0.29 GR | 0.514 GR | 0.372 GR | 0.368 GR | 0.528 GR | 0.443 GR | 0.344 GR | 0.404 GR | 0.255 GR
13 | CN1CC[C@H](c2c(O)cc(O)c3c(=O)cc(-c4ccccc4Cl)oc23)[C@H](O)C1 [Flavopiridol] (max 1 µM) | 0.419 GR | 0.308 GR | 0.257 GR | 0.238 GR | 0.397 GR | 0.339 GR | 0.285 GR | 0.216 GR | 0.157 GR | 0.257 GR | 0.272 GR | 0.152 GR
14 | CN(C)C/C=C/C(=O)Nc1ccc(C(=O)Nc2cccc(Nc3ncc(Cl)c(-c4c[nH]c5ccccc45)n3)c2)cc1 [THZ1] (max 1 µM) | 0.0711 GR | 0.484 GR | 0.367 GR | 0.348 GR | 0.746 GR | 0.609 GR | 0.86 GR | 0.483 GR | 0.251 GR | 0.381 GR | 0.553 GR | 0.162 GR
15 | CNc1nc(-c2ccc3c(N)n[nH]c3c2)cc(N2C[C@@H](C(=O)NC3CCCCC3)CC[C@H]2C)n1 (max 10 µM) | 0.367 GR | 0.224 GR | 0.0151 GR | 0.146 GR | 0.636 GR | 0.187 GR | 0.498 GR | 0.136 GR | 0.257 GR | 0.0789 GR | 0.266 GR | 0.257 GR
16 | CCC(=O)Nc1ccc(C(=O)Nc2ccc(Nc3ncc4c(n3)N(C)c3ccc(C)cc3C(=O)N4C)cc2)cc1 [FMF-03-145-1] | 1.04 GR | 0.384 GR | 1.08 GR | 0.464 GR | 0.323 GR | 0.52 GR | 0.814 GR | 0.808 GR | 1 GR | 1.02 GR | 0.392 GR | 0.391 GR
